Structures are written as SMILES.

This passage reports EC50 and Ratio IC50 results from ChEMBL document CHEMBL3879885 (2006).

The first test deals with Potassium voltage-gated channel subfamily A member 2 (Homo sapiens, UniProt P16389). Description: Inhibition of Kv1.2 (unknown origin).
Chain of Potassium voltage-gated channel subfamily A member 2 (P16389 whole entry): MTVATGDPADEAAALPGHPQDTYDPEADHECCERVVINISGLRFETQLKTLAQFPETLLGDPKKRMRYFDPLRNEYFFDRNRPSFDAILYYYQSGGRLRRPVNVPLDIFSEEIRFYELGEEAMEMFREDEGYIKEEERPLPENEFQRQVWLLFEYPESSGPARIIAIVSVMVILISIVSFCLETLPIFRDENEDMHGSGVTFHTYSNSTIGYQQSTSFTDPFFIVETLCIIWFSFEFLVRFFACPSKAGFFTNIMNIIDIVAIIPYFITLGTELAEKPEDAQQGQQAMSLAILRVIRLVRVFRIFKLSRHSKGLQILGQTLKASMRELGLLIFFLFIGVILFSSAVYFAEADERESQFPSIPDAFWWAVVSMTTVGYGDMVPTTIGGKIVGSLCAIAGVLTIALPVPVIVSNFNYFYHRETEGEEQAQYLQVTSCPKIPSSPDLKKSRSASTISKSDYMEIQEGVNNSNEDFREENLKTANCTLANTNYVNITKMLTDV
Settings: not given
The compound `O=c1ccc2c(OCCCCOc3ccccc3)c3ccoc3cc2o1` showed a 50% effective concentration (EC50) of 250 nM.

In a further test the target is T1, Potassium voltage-gated channel subfamily A member 3 (Homo sapiens, UniProt P22001). Description: Inhibition of Kv1.3 (unknown origin).
T1 sequence (P22001 whole entry): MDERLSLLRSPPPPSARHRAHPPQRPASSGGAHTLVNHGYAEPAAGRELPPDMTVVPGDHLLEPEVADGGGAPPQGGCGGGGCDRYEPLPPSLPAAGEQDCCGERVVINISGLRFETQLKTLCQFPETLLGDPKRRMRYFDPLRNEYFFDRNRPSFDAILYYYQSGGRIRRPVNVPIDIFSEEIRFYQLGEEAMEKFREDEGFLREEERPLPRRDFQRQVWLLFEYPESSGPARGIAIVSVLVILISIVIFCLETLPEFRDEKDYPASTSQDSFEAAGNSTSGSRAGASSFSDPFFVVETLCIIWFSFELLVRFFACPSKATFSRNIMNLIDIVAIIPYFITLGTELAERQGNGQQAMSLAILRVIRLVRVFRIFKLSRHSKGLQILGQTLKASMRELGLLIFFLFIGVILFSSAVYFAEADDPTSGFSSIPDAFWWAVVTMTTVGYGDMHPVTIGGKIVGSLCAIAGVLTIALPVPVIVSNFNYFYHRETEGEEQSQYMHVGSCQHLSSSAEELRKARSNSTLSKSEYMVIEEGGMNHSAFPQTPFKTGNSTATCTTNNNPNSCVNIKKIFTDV
Settings: not given
In kind it is single protein.
Consider `COc1cccc(OCCCOc2c3ccoc3cc3oc(=O)ccc23)c1`, for which the EC50 was 45 nM.
Same read-out and setting: the value for `COc1cc(OC)cc(OCCCOc2c3ccoc3cc3oc(=O)ccc23)c1` was 75 nM.
Take `O=c1ccc2c(OCCCCSc3ncccn3)c3ccoc3cc2o1`: the midpoint of the response, the EC50, lay at 50 nM.
In turn, `O=c1ccc2c(OCCCOc3ccccc3)c3ccoc3cc2o1` yielded an EC50 of 15 nM. Compared with the last compound, the EC50 is about 3.3-fold lower.
Same read-out and setting: the value for `O=c1ccc2c(OCCOCc3ccccc3)c3ccoc3cc2o1` was 10 nM.
Same read-out and setting: to `N#CCCCCOc1c2occc2cc2ccc(=O)oc12` belongs 5000 nM; to `Cc1nnc(SCCCCOc2c3ccoc3cc3oc(=O)ccc23)s1`, 175 nM; to `N#CCCCCOc1c2ccoc2cc2oc(=O)ccc12`, 1300 nM.
With `COc1cccc(OCCCCOc2c3ccoc3cc3oc(=O)ccc23)c1`, a half-maximal response (EC50) required 21 nM.
On the same count and under the same terms, to `COc1ccc2sc(SCCCCOc3c4ccoc4cc4oc(=O)ccc34)nc2c1` belongs 35 nM; to `COc1cc(OC)cc(OCCCCOc2c3ccoc3cc3oc(=O)ccc23)c1`, 120 nM; to `O=c1ccc2c(OCCCCCOc3ccccc3)c3ccoc3cc2o1`, 15 nM.
The same measure, in the same setting: to `CCc1ccc(OCCCCCOc2c3ccoc3cc3oc(=O)ccc23)cc1` belongs 35 nM; to `O=c1ccc2c(OCCCCOc3ccc4ccccc4c3)c3ccoc3cc2o1`, 12 nM; to `O=c1ccc2c(OCCCCOc3cccc4ccccc34)c3ccoc3cc2o1`, 20 nM.
On the same count and under the same terms, the value for `O=c1ccc2c(OCCCCOc3cccc(C(F)(F)F)c3)c3ccoc3cc2o1` was 65 nM.
On to `O=c1ccc2c(OCCCCn3cccn3)c3ccoc3cc2o1`, for which the half-maximal effective concentration (EC50) was 450 nM. Compared with the last compound, the EC50 is about 6.9-fold higher.
Same read-out and setting: to `O=c1ccc2c(OCCCOc3ccc(Cl)cc3)c3ccoc3cc2o1` belongs 10 nM; to `CCc1ccc(OCCCOc2c3ccoc3cc3oc(=O)ccc23)cc1`, 14 nM; to `COc1ccc(OCCCCOc2c3ccoc3cc3oc(=O)ccc23)cc1`, 8 nM.
Same read-out and setting: the value for `O=c1ccc2ccc(OCCCCOc3c4ccoc4cc4oc(=O)ccc34)cc2o1` was 125 nM; that for `O=c1ccc2c(OCCCCOc3ccc([N+](=O)[O-])cc3)c3ccoc3cc2o1` was 7 nM.
Same read-out and setting: the value for `CCc1ccc(OCCCCOc2c3ccoc3cc3oc(=O)ccc23)cc1` was 13 nM.
Compound `O=c1ccc2c(OCCCCOc3ccc(Cl)cc3)c3ccoc3cc2o1` returned an EC50 of 5 nM.
`N#CCCCOc1c2ccoc2cc2oc(=O)ccc12` displayed a concentration for a half-maximal effect (EC50) of 5000 nM.
On the same count and under the same terms, to `Cc1ccc(OCCCCOc2c3ccoc3cc3oc(=O)ccc23)c([N+](=O)[O-])c1` belongs 700 nM; to `O=c1ccc2c(OCCCOCc3ccccc3)c3ccoc3cc2o1`, 50 nM; to `Cc1ccc(OCCCCOc2c3ccoc3cc3oc(=O)ccc23)cc1`, 7 nM.
With `COc1cc(OC)cc(OCCCCCOc2c3ccoc3cc3oc(=O)ccc23)c1`, the EC50 stood at 32 nM. This EC50 is about 4.6-fold higher than that of the compound before.
Still for that read-out and setting: the value for `O=c1ccc2c(OCCCCOCc3ccccc3)c3ccoc3cc2o1` was 49 nM; that for `O=C(CCCOc1c2ccoc2cc2oc(=O)ccc12)c1ccccc1` was 31 nM; that for `O=c1ccc2c(OCCCCOc3ccc(Oc4ccccc4)cc3)c3ccoc3cc2o1` was 16 nM.
For `N#CCCCOc1c2occc2cc2ccc(=O)oc12`, the EC50 came to 5000 nM.

In a further test the target is T1, Potassium voltage-gated channel subfamily A member 3. Kind of test: Ratio of IC50 for Kv1.3 in human central memory T cells to IC50 for Kv1.3 in CD4+ MBP-specific multiple sclerosis patient effector memory T lymphocytes stimulated with 3 times MBP. It is filed as cell-based. Particulars: T-cell.
With `CC[C@H](C)[C@@H]1NC(=O)[C@@H](NC(=O)[C@H](CO)NC(=O)[C@@H](N)CCCNC(=N)N)CSSC[C@@H](C(=O)O)NC(=O)[C@H]([C@@H](C)O)NC(=O)CNC(=O)[C@@H]2CSSC[C@@H]3NC(=O)[C@H](CCC(N)=O)NC(=O)[C@H](Cc4ccccc4)NC(=O)[C@H](C)NC(=O)[C@H]([C@@H](C)O)NC(=O)[C@H](CSSC[C@H](NC(=O)[C@H](Cc4ccccc4)NC(=O)[C@@H](CO)NC(=O)[C@@H](CC(C)C)NC(=O)[C@H](CCCNC(=N)N)NC(=O)[C@H](Cc4ccc(O)cc4)NC(=O)[C@H](CCCCN)NC(=O)[C@H](CCSC)NC(=O)[C@H](CO)NC(=O)[C@H](Cc4cnc[nH]4)NC(=O)[C@H](CCCCN)NC3=O)C(=O)N[C@@H](CCCNC(=N)N)C(=O)N[C@@H](CCCCN)C(=O)N[C@@H]([C@@H](C)O)C(=O)N2)NC(=O)[C@H](CCCNC(=N)N)NC(=O)[C@H](CO)NC(=O)[C@H](CCCCN)NC(=O)[C@@H]2CCCN2C(=O)[C@H]([C@@H](C)CC)NC(=O)[C@H]([C@@H](C)O)NC(=O)[C@H](CC(=O)O)NC1=O`, the Ratio IC50 was found to be 10.
